# Data published in publication PMC6556873, “Rapid Covalent-Probe Discovery by Electrophile-Fragment Screening” (Journal of the American Chemical Society, 2019).
# Where two headings read alike, the source gives them in different places.
# How the values were obtained:
# in vitro [1] = assay: in vitro; design: species or system HB2, CCD841; settings: human, hek293 cells
# in vitro [2] = assay: in vitro; design: species or system HB2, HEK293; settings: human, ccd841 cells
# BSA = target: T1, BSA (Bos taurus, UniProt P02769); design: Intact protein LC/MS covalent labelling, fragments in pools of five, 200 uM each, 4 °C; settings: 24 h, 4 °C, pool of five; 200 µM; covalent
# T1 construct: gene ALB
# T1 sequence (P02769 whole entry, the tested form may be a part): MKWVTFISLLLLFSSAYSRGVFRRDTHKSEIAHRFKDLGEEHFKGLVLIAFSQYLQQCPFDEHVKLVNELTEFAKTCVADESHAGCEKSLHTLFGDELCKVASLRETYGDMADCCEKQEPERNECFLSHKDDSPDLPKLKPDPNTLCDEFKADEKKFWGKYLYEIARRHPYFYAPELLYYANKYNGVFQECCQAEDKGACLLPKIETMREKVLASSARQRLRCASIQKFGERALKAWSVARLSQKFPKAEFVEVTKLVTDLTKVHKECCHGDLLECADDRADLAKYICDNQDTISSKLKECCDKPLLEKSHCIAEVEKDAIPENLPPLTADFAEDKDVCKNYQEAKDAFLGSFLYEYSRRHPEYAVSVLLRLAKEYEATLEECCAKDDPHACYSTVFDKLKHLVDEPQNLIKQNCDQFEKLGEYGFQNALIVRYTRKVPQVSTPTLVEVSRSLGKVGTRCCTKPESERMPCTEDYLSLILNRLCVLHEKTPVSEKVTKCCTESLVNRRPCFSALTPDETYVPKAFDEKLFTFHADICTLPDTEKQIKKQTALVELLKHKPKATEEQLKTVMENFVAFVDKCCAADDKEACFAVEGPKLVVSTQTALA
# Procedure: (§1) Incubations were performed at 200 μM for each compound and 2 μM of protein (10 μM for BSA) for 24 h at 4 °C with moderate shaking. Incubation buffers varied among proteins (PBS pH 7.4 for QSOX1 and BSA; 10 mM HEPES pH 7.5, 0.3 M NaCl, 0.5 mM TCEP for PCAF, UPS8, and NUDT7; […]; 10 mM Na2HPO4 pH 7.5 100 mM NaCl 5 mM β-mercaptoethanol for NV3CP; 20 mM Na phosphate pH 7.5 for NNMT; […]. The reaction was stopped by quenching with formic acid, 0.4% final concentration. Each protein was incubated with the electrophilic library in pools of five compounds per well. The pool’s composition maximized the difference in mass between fragments in the same well. Incubations were performed with each fragment at 200 μM, for 24 h at 4 °C, to allow the screening of proteins that are not stable for long time periods at higher temperatures. Following incubation, we used intact protein [compound left out] chromatography/mass spectrometry (LC/MS) to identify the fragments and quantify their labeling (Figure 3A). […] There was good agreement between the percent of labeling of NUDT7 by 100 random individual compounds and that obtained in pools of five (R^2=0.78; Figure S6 and Data set 2 in the Supporting Information).
# PCAF = target: T2, PCAF (Homo sapiens, UniProt Q92831); design: Intact protein LC/MS covalent labelling, fragments in pools of five, 200 uM each, 4 °C; settings: 24 h, 4 °C, pool of five; 200 µM; covalent
# T2 construct: gene KAT2B
# T2 sequence (Q92831 whole entry, the tested form may be a part): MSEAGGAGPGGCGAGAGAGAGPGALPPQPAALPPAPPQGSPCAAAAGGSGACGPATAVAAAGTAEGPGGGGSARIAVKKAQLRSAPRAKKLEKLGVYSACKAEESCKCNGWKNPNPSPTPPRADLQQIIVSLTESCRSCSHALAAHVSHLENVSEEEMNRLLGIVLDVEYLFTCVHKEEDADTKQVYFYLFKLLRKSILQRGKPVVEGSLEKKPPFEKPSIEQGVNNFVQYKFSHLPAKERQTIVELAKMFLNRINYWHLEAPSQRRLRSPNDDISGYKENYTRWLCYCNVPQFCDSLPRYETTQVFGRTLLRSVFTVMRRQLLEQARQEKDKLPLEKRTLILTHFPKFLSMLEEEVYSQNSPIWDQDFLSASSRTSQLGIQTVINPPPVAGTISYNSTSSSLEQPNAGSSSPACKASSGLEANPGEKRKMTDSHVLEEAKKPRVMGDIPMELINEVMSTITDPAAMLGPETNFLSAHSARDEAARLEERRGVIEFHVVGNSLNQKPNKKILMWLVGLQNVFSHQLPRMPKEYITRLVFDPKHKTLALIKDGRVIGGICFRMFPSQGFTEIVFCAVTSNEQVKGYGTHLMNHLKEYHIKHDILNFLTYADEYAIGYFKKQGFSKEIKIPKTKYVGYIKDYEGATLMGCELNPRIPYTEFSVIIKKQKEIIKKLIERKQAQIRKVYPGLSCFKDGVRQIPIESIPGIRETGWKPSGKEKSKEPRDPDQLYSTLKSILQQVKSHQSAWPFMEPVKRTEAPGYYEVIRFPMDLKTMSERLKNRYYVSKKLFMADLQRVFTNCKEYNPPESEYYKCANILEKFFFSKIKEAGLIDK
# Procedure: as §1
# NUDT7 = target: T3, NUDT7 (Homo sapiens, UniProt P0C024); design: Intact protein LC/MS covalent labelling, fragments in pools of five, 200 uM each, 4 °C; settings: 24 h, 4 °C, pool of five; 200 µM; covalent
# T3 construct: residues 14-235, E. coli, pNIC28-Bsa4, N-terminal His6 tag removed by TEV, construct 26672 Da
# T3 sequence (P0C024 14-235): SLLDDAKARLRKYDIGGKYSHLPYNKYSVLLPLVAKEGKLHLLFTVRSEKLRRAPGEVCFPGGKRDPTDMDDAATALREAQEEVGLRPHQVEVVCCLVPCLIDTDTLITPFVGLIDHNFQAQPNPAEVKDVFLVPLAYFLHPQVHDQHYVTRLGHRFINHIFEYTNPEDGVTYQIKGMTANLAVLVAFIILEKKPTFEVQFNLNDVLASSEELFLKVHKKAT
# Procedure: as §1
# in vitro [3] = assay: in vitro; design: species or system CCD841, HEK293; settings: human, hb2 cells, read-out: HB-2 Cells Viability (%)
SMILES,"viability at 48 h, 10 µM (in vitro [1]) [%]","viability at 48 h, 10 µM (in vitro [2]) [%]",BSA (BSA),PCAF (PCAF),NUDT7 (NUDT7),"viability at 48 h, 10 µM (in vitro [3]) [%]"
CC(=O)c1sc2nc(C)cc(C)c2c1NC(=O)CCl [PCM-0102108],101,99,0,0,0,103
COc1ccc(C(=O)NNC(=O)CCl)cc1 [PCM-0102115],79.4,81.5,0,0,0.11,91.7
O=C(CCl)Nc1ccc2[nH]c(C(F)(F)F)nc2c1 [PCM-0102151],1.3,28,0,0,0.07,7.4
Cc1cccc([N+](=O)[O-])c1NC(=O)CCl [PCM-0102176],77.5,71.7,0,0,0.22,85.3
CN(Cc1c(F)cccc1Cl)C(=O)CCl [PCM-0102184],4.9,42.2,0,0,,9.3
O=C(CCl)Nc1ccc(N2CCCCCC2)cc1 [PCM-0102199],4,31.8,0,0,0.08,7
Cc1cccc(N2CCN(C(=O)CCl)CC2)c1C [PCM-0102215],11.1,43.8,0,0,0.29,7.5
N#Cc1cnn(-c2ccccc2)c1NC(=O)CCl [PCM-0102225],91,81,0,0,0.16,99
O=C(CCl)Nc1c(Cl)cccc1Cl [PCM-0102234],101,77.5,0,0.45,0.64,96.3
CC1CCN(c2ccc(NC(=O)CCl)cc2)CC1.Cl [PCM-0102235],18.9,48.3,0,0,0,21.9
COc1ccc(NC(=O)NC(=O)CCl)cc1 [PCM-0102268],65,70.4,0,0,0,63.7
Cc1cc(N2CCCC2)ccc1NC(=O)CCl [PCM-0102301],40.7,78.6,0,0,0.24,47.9
O=C(CCl)NNc1ccccn1 [PCM-0102319],94.6,106,0,0,0,106
O=C(CCl)Nc1ccc2c(c1)OCCO2 [PCM-0102324],8.2,63.3,0,0,,35.2
Cc1cc(NC(=O)CCl)n(C)n1 [PCM-0102383],31.2,54.4,0,0,0,64.5
O=C(CCl)N1CCc2cc([N+](=O)[O-])ccc21 [PCM-0102403],50.4,51.4,0,0,0,21.2

SMILES,"viability at 48 h, 10 µM (in vitro [1]) [%]","viability at 48 h, 10 µM (in vitro [2]) [%]",BSA (BSA),PCAF (PCAF),NUDT7 (NUDT7),"viability at 48 h, 10 µM (in vitro [3]) [%]"
Cc1ccc(NC(=O)CCl)c(Cl)c1 [PCM-0102408],38.1,78.1,0,0,0.18,35.9
CC1CCCCN1C(=O)CCl (stereo not drawn) [PCM-0102434],71.3,82.7,0,0,0,89.1
C=CC(=O)NC1c2ccccc2CC12CCOCC2 (stereo not drawn) [PCM-0102445],111,106,0,0,0,103
C=CC(=O)N1CCC(NC(=O)c2cc(C)on2)CC1 [PCM-0102557],83.7,101,0,0,0,101
C=CC(=O)NCc1cnc(C)s1 [PCM-0102587],83.2,111,0.24,0,0,107
O=C(CCl)N1CCc2[nH]c3ccccc3c2C1 [PCM-0102591],7.5,61.8,0,0,0.22,7.3
C=CC(=O)NC1(c2nc(C)cs2)CCOCC1 [PCM-0102601],109,102,0,0,0,103
O=C(CCl)N1CC=C(c2c[nH]c3ccccc23)CC1 [PCM-0102631],46.3,77.7,0,0,,15.3
C=CC(=O)N1CCCC(c2nc(C(F)(F)F)cn2C)C1 (stereo not drawn) [PCM-0102633],106,118,0,0,0,99.9
C=CC(=O)NC1CCN(C(C)=O)Cc2cc(F)ccc21 (stereo not drawn) [PCM-0102635],91.8,114,0,0,0,101
C=CC(=O)N1CCn2c(cc3cc(Cl)ccc32)C1 [PCM-0102661],87.1,109,0.18,0,0,81.5
O=C(CCl)NCc1ccc(Cl)cc1 [PCM-0102668],83.7,112,0,0,0,108
C=CC(=O)NC(C)(C)c1noc(C(C)(C)C)n1 [PCM-0102724],113,108,0,0,0,95.8
N#Cc1ccsc1NC(=O)CCl [PCM-0102768],45.9,74.6,,0,,46.1
C=CC(=O)NC(C)c1ccc(C(F)(F)F)nc1Cl (stereo not drawn) [PCM-0103053],85.5,113,0,0,,99.6
